{"source": "paper PMC3362725", "about": "“An open-label, phase 1 study evaluating safety, tolerability, and pharmacokinetics of linifanib (ABT-869) in Japanese patients with solid tumors” (Cancer Chemotherapy and Pharmacology, 2012)", "key": {"solid tumors": {"test_system": "solid tumors", "assay": "Tumor response per RECIST (CT or MRI), phase 1 study", "format": "in vivo, human (Japanese patients with solid tumors)", "experimental": "Baseline evaluations included physical examination, body weight, vital signs, 12-lead electrocardiogram, ECOG PS assessment, pregnancy test, laboratory tests, and multiple-gated acquisition scan/echocardiogram. Tumor response and/or disease progression was assessed by computerized tomography (CT) scan or magnetic resonance imaging (MRI) per RECIST [20] at screening and on Day (D) 1 of every second cycle prior to the subsequent treatment period, until tumor progression or until final visit. Complete response and partial response (PR) were defined according to RECIST [20]; objective response rate (ORR) was defined as the proportion of patients with best response of PR or CR among the study population. Safety assessments included laboratory test results and adverse events (AEs), which were graded according to CTCAE v3 [18] and coded by medical dictionary of regulatory activities (MedDRA) 1.0."}, "[1]": {"design": "method as in earlier work", "details": "Caucasian patients, 0.25 mg/kg single dose, mean ± SD, N 13; cited from earlier work"}, "[2]": {"design": "method as in PMID 19720910", "details": "non-Japanese Asian patients, 0.10–0.30 mg/kg single dose, mean ± SD, N 31; calculated from ref 14; cited from earlier work"}, "[3]": {"design": "method as in PMID 19720910", "details": "cited from earlier work"}}, "note": "Where “and” joins values, the source holds several entries; their conditions need not be identical. Identical values can stand only once. Like-named read-outs stand apart in the source and are kept apart here."}
{"smiles": "Cc1ccc(F)c(NC(=O)Nc2ccc(-c3cccc4[nH]nc(N)c34)cc2)c1", "note": "[linifanib, N-(4-(3-amino-1H-indazol-4-yl)phenyl)-N’-(2-fluoro-5-methylphenyl)urea]", "values": [{"measurement": "ORR", "setting": "solid tumors; 2 of 18 patients, RECIST", "result": 11.1, "unit": "%"}, {"measurement": "patients with tumor reduction >5% by RECIST", "setting": "solid tumors; 12/18 patients", "result": 67, "unit": "%"}, {"measurement": "patients with SD for ≥12 weeks", "setting": "solid tumors; 18 patients", "result": 11}, {"measurement": "patients with confirmed PR", "setting": "solid tumors; 18 patients, 0.20 mg/kg (breast cancer) and 0.25 mg/kg (lung cancer)", "result": "Two"}, {"measurement": "patients with reduction in summed tumor dimensions of ≥5%", "setting": "solid tumors; of the 18 patients, cohorts 0.10, 0.20, and 0.25 mg/kg", "result": "12 and 12/18"}, {"measurement": "median duration of response", "setting": "solid tumors; range 2.8–3.5", "result": 3.2, "unit": "months"}, {"measurement": "median progression-free survival (PFS)", "setting": "solid tumors; range 2.8–9.8", "result": 5.7, "unit": "months"}, {"measurement": "patients who continued linifanib with clinical benefit for ≥48 weeks", "setting": "solid tumors; sarcoma, breast, lung, thymic cancer, best response SD", "result": "Four"}, {"measurement": "DN AUC24", "setting": "[1]", "result": "0.21 ± 0.04", "unit": "µg·h/mL/mg"}, {"measurement": "DN C max", "setting": "[1]", "result": "0.018 ± 0.005", "unit": "µg/mL/mg"}, {"measurement": "T max", "setting": "[1]", "result": "1.77 ± 0.44", "unit": "h"}, {"measurement": "DN AUC24", "setting": "[2]", "result": "0.25 ± 0.10", "unit": "µg·h/mL/mg"}, {"measurement": "DN C max", "setting": "[2]", "result": "0.020 ± 0.008", "unit": "µg/mL/mg"}, {"measurement": "T max", "setting": "[2]", "result": "2.94 ± 1.27", "unit": "h"}, {"measurement": "patients with Grade 3 hypertension", "setting": "[3]; non-Japanese Asian patients, recommended phase 2 dose", "result": 8, "unit": "%"}, {"measurement": "recommended phase 2 dose", "setting": "[3]; prior phase 1 study in non-Japanese", "result": 0.25, "unit": "mg/kg"}]}
